“And” between values parts separate entries of the source, which are not always exact repeats. Equal entries are not always repeated. Where two headings read alike, the source gives them in different places.
Tested on: panel of 140 standard cancer cell lines
Experiment: ProliFiler-140 cancer cell line screen (CellTiterGlo, 72 h)
Assay type: cell-based
Details: for IC50: Homo sapiens
Experimental: Incubations were performed for 72 h before automated viability readout with CellTiterGlo (Figure 8).
End of Figure S11 (part 5 of 5): ProliFiler-140 cancer cell line screening for cytotoxicity of the prodrugs.
8-data-point dose response curves from CellTiter-Glo® viability readout.
ProliFiler-140 cell line panel part V

SMILES: COc1cc2cc(C(=O)N3C[C@@H](CCl)c4c3cc(OC(=O)N3CCN(C(=O)CCC(=O)N5CCN(C)CC5)[C@H]5CSSC[C@H]53)c3ccccc43)[nH]c2c(OC)c1OC [P-SS66C-CBI-TMI]
- IC50 (KG-1a, read-out: IC50 [M] (ProliFiler-140), KG-1 a (Blood)): 1.07e-07 M
- IC50 (KMS-12-BM, read-out: IC50 [M] (ProliFiler-140), KMS-12-BM (Blood)): 3.3e-08 M
- IC50 (LN-229, read-out: IC50 [M] (ProliFiler-140), LN229 (Brain)): 1.33e-07 M
- IC50 (LNCaP, read-out: IC50 [M] (ProliFiler-140), LnCap (Prostate)): 2.7e-08 M
- IC50 (LoVo, read-out: IC50 [M] (ProliFiler-140), LOVO (Colon)): 1.93e-08 M
- IC50 (MCF7, MCF-7): 3.1e-08 M
- IC50 (MCF7, read-out: IC50 [M] (ProliFiler-140), MCF-7 (Breast)): 3.1e-08 M
- IC50 (MDA-MB-231, read-out: IC50 [M] (ProliFiler-140), MDA MB 231 (Breast)): 1.36e-07 M
- IC50 (MDA-MB-435, MDA MB 435 (Skin), read-out: IC50 [M] (ProliFiler-140)): 1.3e-07 M
- IC50 (MDA-MB-468, MDA-MB-468): 1.9e-08 M
- IC50 (MDA-MB-468, read-out: IC50 [M] (ProliFiler-140), MDA-MB-468 (Breast)): 1.9e-08 M
- IC50 (MEC1, read-out: IC50 [M] (ProliFiler-140), MEC-1 (Blood)): 1.1e-08 M
- IC50 (MIA PaCa-2, read-out: IC50 [M] (ProliFiler-140), Mia PaCA 2 (Pancreas)): 8.56e-08 M
- IC50 (MKN-1, read-out: IC50 [M] (ProliFiler-140), MKN-1 (Stomach)): 1.4e-07 M
- IC50 (MKN-45, read-out: IC50 [M] (ProliFiler-140), MKN-45 (Stomach)): 8.2e-08 M
- IC50 (MOLM-13, read-out: IC50 [M] (ProliFiler-140), MOLM-13 (Blood)): 5.3e-09 M
- IC50 (MOLT-4, read-out: IC50 [M] (ProliFiler-140), MOLT-4 (Blood)): 8.6e-09 M
- IC50 (MV4-11, read-out: IC50 [M] (ProliFiler-140), MV4-11 (Blood)): 1.5e-09 M
- IC50 (NALM-6, read-out: IC50 [M] (ProliFiler-140), NALM-6 (Blood)): 2.47e-09 M
- IC50 (NCI-H82, read-out: IC50 [M] (ProliFiler-140), NCI-H82 (Lung)): 8.8e-08 M
- IC50 (NCI-H292, read-out: IC50 [M] (ProliFiler-140), NCI-H292 (Lung)): 3.8e-08 M
- IC50 (NCI-H441, read-out: IC50 [M] (ProliFiler-140), NCI-H441 (Lung)): 5.05e-08 M
- IC50 (NCI-H460, read-out: IC50 [M] (ProliFiler-140), H460 (Lung)): 5.5e-09 M
- IC50 (NCI-H838, read-out: IC50 [M] (ProliFiler-140), NCI-H838 (Lung)): 7.4e-08 M
- IC50 (NCI-H1048, read-out: IC50 [M] (ProliFiler-140), NCI-H1048 (Lung)): 4e-09 M
- IC50 (NCI-H1299, read-out: IC50 [M] (ProliFiler-140), H1299 (Lung)): 5.38e-08 M
- IC50 (NCI-H1437, read-out: IC50 [M] (ProliFiler-140), NCI-H1437 (Lung)): 1.85e-08 M
- IC50 (NCI-H1563, read-out: IC50 [M] (ProliFiler-140), NCI-H1563 (Lung)): 1.1e-07 M
- IC50 (NCI-H1573, read-out: IC50 [M] (ProliFiler-140), NCI-H1573 (Lung)): 9e-08 M
- IC50 (NCI-H1581, read-out: IC50 [M] (ProliFiler-140), NCI-H1581 (Lung)): 4.66e-08 M
- IC50 (NCI-H1703, read-out: IC50 [M] (ProliFiler-140), NCI-H1703 (Lung)): 5.1e-08 M
- IC50 (NCI-H1838, read-out: IC50 [M] (ProliFiler-140), NCI-H1838 (Lung)): 7.7e-08 M
- IC50 (NCI-H2009, read-out: IC50 [M] (ProliFiler-140), NCI-H2009 (Lung)): 2.66e-08 M
- IC50 (NCI-H2228, read-out: IC50 [M] (ProliFiler-140), H2228 (Lung)): 4.53e-08 M
- IC50 (NCI-H2286, read-out: IC50 [M] (ProliFiler-140), NCI-H2286 (Lung)): 1.7e-08 M
- IC50 (NCI-N87, read-out: IC50 [M] (ProliFiler-140), NCI-N87 (Stomach)): 7.5e-08 M
- IC50 (OCI-AML-3, read-out: IC50 [M] (ProliFiler-140), OCI-AML3 (Blood)): 1.3e-08 M
- IC50 (OCI-AML-5, read-out: IC50 [M] (ProliFiler-140), OCI-AML5 (Blood)): 6e-09 M
- IC50 (OCI-LY19, read-out: IC50 [M] (ProliFiler-140), OCI-LY19 (Blood)): 2.83e-09 M
- IC50 (OPM-2, read-out: IC50 [M] (ProliFiler-140), OPM-2 (Blood)): 2.61e-08 M
- IC50 (OVCAR-3, read-out: IC50 [M] (ProliFiler-140), OVCAR-3 (Ovary)): 7.9e-08 M
- IC50 (P31-FUJ, read-out: IC50 [M] (ProliFiler-140), P31/FUJ (Blood)): 2.3e-08 M
- IC50 (PANC-1, read-out: IC50 [M] (ProliFiler-140), PANC-1 (Pancreas)): 2e-07 M
- IC50 (RL95-2, read-out: IC50 [M] (ProliFiler-140), RL95-2 (Endometrium)): 1.25e-07 M
- IC50 (RPMI-8226, RPMI 8226): 1.2e-08 M
- IC50 (RPMI-8226, read-out: IC50 [M] (ProliFiler-140), RPMI 8226 (Blood)): 1.19e-08 M
- IC50 (SAOS-2, read-out: IC50 [M] (ProliFiler-140), Saos-2 EC (Bone)): 6.63e-08 M
- IC50 (SCLC-21H, read-out: IC50 [M] (ProliFiler-140), SCLC-21H (Lung)): 2.56e-08 M
- IC50 (SJSA-1, read-out: IC50 [M] (ProliFiler-140), SJSA-1 (Bone)): 9.77e-08 M
- IC50 (SK-BR-3, read-out: IC50 [M] (ProliFiler-140), SK-BR-3 (Breast)): 4.2e-08 M
- IC50 (SK-ES1, read-out: IC50 [M] (ProliFiler-140), SK-ES-1 (Bone)): 2.71e-09 M
- IC50 (SK-LU-1, read-out: IC50 [M] (ProliFiler-140), SK-LU-1 (Lung)): 2.3e-08 M
- IC50 (SK-MEL3, read-out: IC50 [M] (ProliFiler-140), SK-MEL-3 (Skin)): 1.6e-07 M
- IC50 (SK-N-FI, read-out: IC50 [M] (ProliFiler-140), SK-N-FI (Brain)): 1.39e-07 M
- IC50 (SK-N-MC, read-out: IC50 [M] (ProliFiler-140), SK-N-MC (Brain)): 1.6e-09 M
- IC50 (SK-N-SH, read-out: IC50 [M] (ProliFiler-140), SK-N-SH (Brain)): 1.1e-07 M
- IC50 (SK-OV-3, read-out: IC50 [M] (ProliFiler-140), SK-OV3 (Ovary)): 3.72e-08 M
- IC50 (SNU1, read-out: IC50 [M] (ProliFiler-140), SNU-1 (Stomach)): 2.3e-08 M
- IC50 (SNU-16, read-out: IC50 [M] (ProliFiler-140), SNU-16 (Stomach)): 6.23e-08 M
- IC50 (SU-DHL-5, read-out: IC50 [M] (ProliFiler-140), SU-DHL-5 (Blood)): 2.6e-09 M
- IC50 (SW480, read-out: IC50 [M] (ProliFiler-140), SW480 (Colon)): 5.51e-08 M
- IC50 (SW948, read-out: IC50 [M] (ProliFiler-140), SW948 (Colon)): 1.43e-07 M
- IC50 (SW1783, read-out: IC50 [M] (ProliFiler-140), SW-1783 (Brain)): 4.85e-08 M
- IC50 (SW-620, SW620): 1.5e-07 M
- IC50 (SW-620, read-out: IC50 [M] (ProliFiler-140), SW620 (Colon)): 1.53e-07 M
- IC50 (SiHa, read-out: IC50 [M] (ProliFiler-140), SiHa (Ovary)): 1.13e-07 M
- IC50 (T47D, T-47D): 9.8e-08 M
- IC50 (T47D, read-out: IC50 [M] (ProliFiler-140), T-47D (Breast)): 9.8e-08 M
- IC50 (T98G, read-out: IC50 [M] (ProliFiler-140), T98G (Brain)): 8.08e-08 M
- IC50 (U2OS, read-out: IC50 [M] (ProliFiler-140), U2OS (Bone)): 3.19e-08 M
- IC50 (U-87 MG, read-out: IC50 [M] (ProliFiler-140), U87MG (Brain)): 1.5e-07 M
- IC50 (U-118-MG, read-out: IC50 [M] (ProliFiler-140), U118MG (Brain)): 1.86e-07 M
- IC50 (U-251, read-out: IC50 [M] (ProliFiler-140), U251MG (Brain)): 1.2e-07 M
- IC50 (U-266, read-out: IC50 [M] (ProliFiler-140), U-266 (Blood)): 9.38e-09 M
- IC50 (U-937, read-out: IC50 [M] (ProliFiler-140), U-937 (Blood)): 1.15e-08 M
- IC50 (ZR-75-1, read-out: IC50 [M] (ProliFiler-140), ZR-75-1 (Breast)): 3.07e-07 M
- Reductive Activation Index (Hs 746T (Stomach)): 13
- Reductive Activation Index (HuH7 (Liver)): 6.45
- Reductive Activation Index (Hutu 80 (Duodenum)): 5.62 and 5.6
- Reductive Activation Index (JIMT-1 (Breast)): 15
- Reductive Activation Index (K562 (Blood)): 8.6
- Reductive Activation Index (KARPAS 299 (Blood)): 6.55
- Reductive Activation Index (KG-1 (Blood)): 3.24
